pIC50: −log10 of the molar value. Where a name gives a salt, the structure may show the parent alone.
Biological target: human SPR (Homo sapiens (Human), UniProt P35270)
Assay: Evaluation Example 2: Measurement of human SPR inhibitory activity (seven concentrations, sepiapterin absorbance at 420 nm)
Assay type: biochemical
Details: Evaluation Example 2, seven concentrations 0.14 nM to 100 nM, 240 minutes at room temperature, read-out: IC50
In short: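 His-tagged full-length human SPR (1-261) was expressed in E. coli and the tag removed. Enzyme at 150 ng/mL in 100 mM Tris-HCl pH 7.5/0.01% BSA was mixed with compound (0.14–100 nM, seven points), 120 μM sepiapterin and 160 μM NADPH, both as added-solution concentrations. After 240 min at room temperature, remaining sepiapterin was read at 420 nm to give percent inhibition.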

Sequence of human SPR (P35270 whole entry): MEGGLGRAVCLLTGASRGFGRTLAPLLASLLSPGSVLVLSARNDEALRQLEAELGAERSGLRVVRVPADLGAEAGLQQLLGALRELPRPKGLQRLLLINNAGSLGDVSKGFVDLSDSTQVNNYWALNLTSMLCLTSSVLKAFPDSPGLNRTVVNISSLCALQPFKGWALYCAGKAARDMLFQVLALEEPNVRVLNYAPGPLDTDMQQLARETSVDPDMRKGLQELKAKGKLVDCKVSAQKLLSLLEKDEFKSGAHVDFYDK

| Compound | pIC50 |
| --- | --- |
| CC(C)Cn1c(=O)c(C(=O)N[C@@H](C)C(F)(F)F)c(O)n2nc(N)c(/C=C/C(=O)N3CCC(F)(F)CC3)c12 [Synthesis Example 421, (S,E)-2-Amino-3-(3-(4,4-difluoropiperidin-1-yl)-3-oxoprop-1-en-1-yl)-7-hydroxy-4-isobutyl-5-oxo-N-(1,1,1-trifluoropropan-2-yl)-4,5-dihydropyrazolo[1,5-a]pyrimidine-6-carboxamide hydrochloride] | 9.11 |
| CC(C)Cn1c(=O)c(C(=O)NC2CC2)c(O)n2nc(N)c(/C=C/C(=O)N3[C@@H](C)COC[C@@H]3C)c12 [Synthesis Example 422, 2-Amino-N-cyclopropyl-3-((E)-3-((3S,5S)-3,5-dimethylmorpholino)-3-oxoprop-1-en-1-yl)-7-hydroxy-4-isobutyl-5-oxo-4,5-dihydropyrazolo[1,5-a]pyrimidine-6-carboxamide] | 9.12 |
| CC(C)Cn1c(=O)c(C(=O)NC2CC2)c(O)n2nc(N)c(/C=C/C(=O)N3C4CCCC3COC4)c12 [Synthesis Example 423, (E)-3-(3-(3-Oxa-9-azabicyclo[3.3.1]nonan-9-yl)-3-oxoprop-1-en-1-yl)-2-amino-N-cyclopropyl-7-hydroxy-4-isobutyl-5-oxo-4,5-dihydropyrazolo[1,5-a]pyrimidine-6-carboxamide hydrochloride] | 9.15 |
| CC(C)(C)Cn1c(=O)c(C(=O)NC2CC2)c(O)n2nc(NC(N)=O)c(/C=C/C(=O)N3CCOCC3)c12 [Synthesis Example 424, (E)-N-Cyclopropyl-7-hydroxy-3-(3-morpholino-3-oxoprop-1-en-1-yl)-4-neopentyl-5-oxo-2-ureido-4,5-dihydropyrazolo[1,5-a]pyrimidine-6-carboxamide] | 9.17 |
| COC(=O)Nc1nn2c(O)c(C(=O)NC3CC3)c(=O)n(CC(C)C)c2c1/C=C/C(=O)N1CCOCC1 [Synthesis Example 425, Methyl (E)-(6-(cyclopropylcarbamoyl)-7-hydroxy-4-isobutyl-3-(3-morpholino-3-oxoprop-1-en-1-yl)-5-oxo-4,5-dihydropyrazolo[1,5-a]pyrimidin-2-yl)carbamate] | 9.11 |
| CNc1nn2c(O)c(C(=O)NC3CC3)c(=O)n(CC(C)C)c2c1/C=C/C(=O)N1CCCC1 [Synthesis Example 427, (E)-N-Cyclopropyl-7-hydroxy-4-isobutyl-2-(methylamino)-5-oxo-3-(3-oxo-3-(pyrrolidin-1-yl)prop-1-en-1-yl)-4,5-dihydropyrazolo[1,5-a]pyrimidine-6-carboxamide] | 9.02 |
| CNc1nn2c(O)c(C(=O)NC3CC3)c(=O)n(CC(C)C)c2c1/C=C/C(=O)N1CCC(F)(F)C1 [Synthesis Example 428, (E)-N-Cyclopropyl-3-(3-(3,3-difluoropyrrolidin-1-yl)-3-oxoprop-1-en-1-yl)-7-hydroxy-4-isobutyl-2-(methylamino)-5-oxo-4,5-dihydropyrazolo[1,5-a]pyrimidine-6-carboxamide] | 9.08 |
| CNc1nn2c(O)c(C(=O)NC3CC3)c(=O)n(CC(C)C)c2c1/C=C/C(=O)N1CC[C@H](F)C1 [Synthesis Example 429, (S,E)-N-Cyclopropyl-3-(3-(3-fluoropyrrolidin-1-yl)-3-oxoprop-1-en-1-yl)-7-hydroxy-4-isobutyl-2-(methylamino)-5-oxo-4,5-dihydropyrazolo[1,5-a]pyrimidine-6-carboxamide] | 9.10 |
| CNc1nn2c(O)c(C(=O)NC3CC3)c(=O)n(CC(C)C)c2c1/C=C/C(=O)N1CCOC[C@@H]1C [Synthesis Example 430, (S,E)-N-Cyclopropyl-7-hydroxy-4-isobutyl-2-(methylamino)-3-(3-(3-methylmorpholino)-3-oxoprop-1-en-1-yl)-5-oxo-4,5-dihydropyrazolo[1,5-a]pyrimidine-6-carboxamide] | 9.04 |
| CNc1nn2c(O)c(C(=O)NC3CC3)c(=O)n(CC(C)C)c2c1/C=C/C(=O)N1CC2CCC(C1)O2 [Synthesis Example 431, (E)-3-(3-(8-Oxa-3-azabicyclo[3.2.1]octan-3-yl)-3-oxoprop-1-en-1-yl)-N-cyclopropyl-7-hydroxy-4-isobutyl-2-(methylamino)-5-oxo-4,5-dihydropyrazolo[1,5-a]pyrimidine-6-carboxamide] | 9.09 |
| CNc1nn2c(O)c(C(=O)NC3CC3)c(=O)n(CC(C)C)c2c1/C=C/C(=O)N1[C@@H](C)COC[C@@H]1C [Synthesis Example 432, N-Cyclopropyl-3-((E)-3-((3S,5S)-3,5-dimethylmorpholino)-3-oxoprop-1-en-1-yl)-7-hydroxy-4-isobutyl-2-(methylamino)-5-oxo-4,5-dihydropyrazolo[1,5-a]pyrimidine-6-carboxamide] | 9.18 |
| CC(C)(C)Cn1c(=O)c(C(=O)NC2CC2)c(O)n2nc(N)c(/C=C/C3CCOCC3)c12 [Synthesis Example 433, (E)-2-Amino-N-cyclopropyl-7-hydroxy-4-neopentyl-5-oxo-3-(2-(tetrahydro-2H-pyran-4-yl)vinyl)-4,5-dihydropyrazolo[1,5-a]pyrimidine-6-carboxamide hydrochloride] | 9.01 |
| CC(C)Cn1c(=O)c(C(=O)NC2CC2)c(O)n2nc(N)c(/C=C/C3CCOCC3)c12 [Synthesis Example 434, (E)-2-Amino-N-cyclopropyl-7-hydroxy-4-isobutyl-5-oxo-3-(2-(tetrahydro-2H-pyran-4-yl)vinyl)-4,5-dihydropyrazolo[1,5-a]pyrimidine-6-carboxamide hydrochloride] | 8.85 |
| C=Cc1c(N)nn2c(O)c(C(=O)NC3CC3)c(=O)n(CC(C)C)c12 [Synthesis Example 435, 2-Amino-N-cyclopropyl-7-hydroxy-4-isobutyl-5-oxo-3-vinyl-4,5-dihydropyrazolo[1,5-a]pyrimidine-6-carboxamide] | 8.84 |
| CCc1c(N)nn2c(O)c(C(=O)NC3CC3)c(=O)n(CC(C)(C)C)c12 [Synthesis Example 436, 2-Amino-N-cyclopropyl-3-ethyl-7-hydroxy-4-neopentyl-5-oxo-4,5-dihydropyrazolo[1,5-a]pyrimidine-6-carboxamide hydrochloride] | 8.92 |
| Cc1c(N)nn2c(O)c(C(=O)NC3CC3)c(=O)n(CC(C)(C)C)c12 [Synthesis Example 437, 2-Amino-N-cyclopropyl-7-hydroxy-3-methyl-4-neopentyl-5-oxo-4,5-dihydropyrazolo[1,5-a]pyrimidine-6-carboxamide hydrochloride] | 8.86 |
| C/C=C/c1c(N)nn2c(O)c(C(=O)NC3CC3)c(=O)n(CC(C)(C)C)c12 [Synthesis Example 438, (E)-2-Amino-N-cyclopropyl-7-hydroxy-4-neopentyl-5-oxo-3-(prop-1-en-1-yl)-4,5-dihydropyrazolo[1,5-a]pyrimidine-6-carboxamide hydrochloride] | 9.01 |
| CC(C)Cn1c(=O)c(C(=O)NC2CC2)c(O)n2nc(N)c(/C=C/C(C)(C)C)c12 [Synthesis Example 439, (E)-2-Amino-N-cyclopropyl-3-(3,3-dimethylbut-1-en-1-yl)-7-hydroxy-4-isobutyl-5-oxo-4,5-dihydropyrazolo[1,5-a]pyrimidine-6-carboxamide hydrochloride] | 8.79 |
| CC(C)(C)Cn1c(=O)c(C(=O)NC2CC2)c(O)n2nc(N)c(/C=C/C3CC3)c12 [Synthesis Example 440, (E)-2-Amino-N-cyclopropyl-3-(2-cyclopropylvinyl)-7-hydroxy-4-neopentyl-5-oxo-4,5-dihydropyrazolo[1,5-a]pyrimidine-6-carboxamide hydrochloride] | 8.92 |
| CC(C)Cn1c(=O)c(C(=O)NC2CC2)c(O)n2nc(N)c(/C=C/C3CCCCC3)c12 [Synthesis Example 441, (E)-2-Amino-3-(2-cyclohexylvinyl)-N-cyclopropyl-7-hydroxy-4-isobutyl-5-oxo-4,5-dihydropyrazolo[1,5-a]pyrimidine-6-carboxamide] | 8.32 |
| CC(C)/C=C/c1c(N)nn2c(O)c(C(=O)NC3CC3)c(=O)n(CC(C)(C)C)c12 [Synthesis Example 442, (E)-2-Amino-N-cyclopropyl-7-hydroxy-3-(3-methylbut-1-en-1-yl)-4-neopentyl-5-oxo-4,5-dihydropyrazolo[1,5-a]pyrimidine-6-carboxamide hydrochloride] | 8.82 |
| Nc1nn2c(O)c(C(=O)NC3CC3)c(=O)n(CC3CCOCC3)c2c1/C=C/C1CCOCC1 [Synthesis Example 443, (E)-2-Amino-N-cyclopropyl-7-hydroxy-5-oxo-4-((tetrahydro-2H-pyran-4-yl)methyl)-3-(2-(tetrahydro-2H-pyran-4-yl)vinyl)-4,5-dihydropyrazolo[1,5-a]pyrimidine-6-carboxamide hydrochloride] | 9.19 |
| CC(C)(C)Cn1c(=O)c(C(=O)NC2CC2)c(O)n2nc(N)c(/C=C/C3CCOC3)c12 (stereo not shown) [Synthesis Example 444, (E)-2-Amino-N-cyclopropyl-7-hydroxy-4-neopentyl-5-oxo-3-(2-(tetrahydrofuran-3-yl)vinyl)-4,5-dihydropyrazolo[1,5-a]pyrimidine-6-carboxamide hydrochloride] | 9.01 |
| CC1(Cn2c(=O)c(C(=O)NC3CC3)c(O)n3nc(N)c(/C=C/C4CCOCC4)c23)CCOCC1 [Synthesis Example 445, (E)-2-Amino-N-cyclopropyl-7-hydroxy-4-((4-methyltetrahydro-2H-pyran-4-yl)methyl)-5-oxo-3-(2-(tetrahydro-2H-pyran-4-yl)vinyl)-4,5-dihydropyrazolo[1,5-a]pyrimidine-6-carboxamide hydrochloride] | 9.18 |
| COC[C@H]1CCCN1C(=O)/C=C/c1c(C)nn2c(O)c(C(=O)NC3CC3)c(=O)n(CC(C)C)c12 [Synthesis Example 612, (R,E)-N-Cyclopropyl-7-hydroxy-4-isobutyl-3-(3-(2-(methoxymethyl)pyrrolidin-1-yl)-3-oxoprop-1-en-1-yl)-2-methyl-5-oxo-4,5-dihydropyrazolo[1,5-a]pyrimidine-6-carboxamide] | 8.91 |

From patent US20240092784A1, “CONDENSED HETEROCYCLIC COMPOUND” (NISSAN CHEMICAL CORPORATION, priority 2020, published 2024)
